Here are results for seven molecules from patent US20240317731A1, “AMINOTHIAZOLE COMPOUNDS AS C-KIT INHIBITORS” (Theseus Pharmaceuticals, Inc., priority 2021, published 2024).

As a reminder, the GI50 is the concentration that inhibits growth by half.

One data set has as its target BAF3 KIT EX11 DEL/T670I (Homo sapiens, UniProt P10721, T670I, cells depend on it, form not given). The data set is described as follows: Ba/F3 KIT mutant viability assay (Cell Titer-Glo), EX11 DEL/T670I. The data set is classed as cell-based. The note with it: 72 hours. The method, then:
(§1) KIT cDNAs were synthesized by GenScript and cloned into the pLVX-IRES-Puro vector (Clontech). Viral particles were produced by transfecting pLVX-IRES-puro vectors containing KIT mutant genes into HEK293 cells (Invitrogen) using the Trans-Lentiviral ORF Packaging Kit (Thermo Scientific). 48 hours post-transfection, virus-containing supernatants were harvested and incubated for another 48-72 hours with parental Ba/F3 cells (DSMZ) in the presence of 10 ng/ml IL-3 (R&D Systems). Transduced Ba/F3 cells were then selected by IL-3 withdrawal and puromycin (0.5-1 μg/mL, Invitrogen).
(§2) Cell lines (e.g., EX11DEL, EX11KEL/D816H, EX11DEL/T670I, and EX11DEL/V654A) were plated into 384 well plates using RPMI 1640 supplemented with 10% FBS at densities that produced linear growth and incubated at 37° C. in 5%(v/v) CO2. Cells were treated with eight concentrations of compound over a 4-fold dilution (10 uM to 0.61 nM) and viability was assessed using Cell Titer-Glo assay (Promega) after 72 hours. Data were plotted as percent viability relative to vehicle-treated cells. Dose-responses curves were generated and used to calculate IC50 values.
(In general: Cellular ATP, detected with luciferase, serves as a proxy for viable cell number.)

Data set [1] is described as follows: In vivo pharmacokinetic studies in non-human primates (monkeys). The note with it: male and female monkeys, oral. Details: species or system monkey. The method, then: Pharmacokinetic studies of Compound (1a) in non-human primates were also undertaken in male (FIG. 2A) and female (FIG. 2B) monkeys at two different doses (2 mg/kg and 4 mg/kg) via oral administration.

In another data set the target is BAF3 KIT EX11 DEL/D816H (Homo sapiens, UniProt P10721, D816H, cells depend on it, form not given). Put plainly: Ba/F3 KIT mutant viability assay (Cell Titer-Glo), EX11 DEL/D816H. The data set is classed as cell-based. The conditions noted are these: 72 hours. The method, then: as §1, §2
In the next data set the target is BAF3 KIT EX11 DEL/V654A (Homo sapiens, UniProt P10721, V654A, cells depend on it, form not given). Put plainly: Ba/F3 KIT mutant viability assay (Cell Titer-Glo), EX11 DEL/V654A. It counts as cell-based. The note with it: 72 hours. The method, then:
as §1, §2

The target in the next data set is BAF3 KIT EX11 DEL (Homo sapiens, UniProt P10721, cells depend on it, form not given). Put plainly: Ba/F3 KIT mutant viability assay (Cell Titer-Glo), EX11 DEL. The data set is classed as cell-based. The note with it: 72 hours. The method, then: as §1, §2
Data set [2] can be described thus: In vivo pharmacokinetic studies in rats. The conditions noted are these: rat. An excerpt:
For example, the pharmacokinetics of Compound (1a) has been studied. […] After repeat dosing for 10 days, increased AUC (area under the curve) were obtained with Compound (1a) at either dose (see FIG. 1).

Structures are written as SMILES. Bounds are passed on as bounds.

Sequence of BAF3 KIT EX11 DEL/T670I (P10721 with tags, fused parts or gaps DEL557-558/T670I, form open): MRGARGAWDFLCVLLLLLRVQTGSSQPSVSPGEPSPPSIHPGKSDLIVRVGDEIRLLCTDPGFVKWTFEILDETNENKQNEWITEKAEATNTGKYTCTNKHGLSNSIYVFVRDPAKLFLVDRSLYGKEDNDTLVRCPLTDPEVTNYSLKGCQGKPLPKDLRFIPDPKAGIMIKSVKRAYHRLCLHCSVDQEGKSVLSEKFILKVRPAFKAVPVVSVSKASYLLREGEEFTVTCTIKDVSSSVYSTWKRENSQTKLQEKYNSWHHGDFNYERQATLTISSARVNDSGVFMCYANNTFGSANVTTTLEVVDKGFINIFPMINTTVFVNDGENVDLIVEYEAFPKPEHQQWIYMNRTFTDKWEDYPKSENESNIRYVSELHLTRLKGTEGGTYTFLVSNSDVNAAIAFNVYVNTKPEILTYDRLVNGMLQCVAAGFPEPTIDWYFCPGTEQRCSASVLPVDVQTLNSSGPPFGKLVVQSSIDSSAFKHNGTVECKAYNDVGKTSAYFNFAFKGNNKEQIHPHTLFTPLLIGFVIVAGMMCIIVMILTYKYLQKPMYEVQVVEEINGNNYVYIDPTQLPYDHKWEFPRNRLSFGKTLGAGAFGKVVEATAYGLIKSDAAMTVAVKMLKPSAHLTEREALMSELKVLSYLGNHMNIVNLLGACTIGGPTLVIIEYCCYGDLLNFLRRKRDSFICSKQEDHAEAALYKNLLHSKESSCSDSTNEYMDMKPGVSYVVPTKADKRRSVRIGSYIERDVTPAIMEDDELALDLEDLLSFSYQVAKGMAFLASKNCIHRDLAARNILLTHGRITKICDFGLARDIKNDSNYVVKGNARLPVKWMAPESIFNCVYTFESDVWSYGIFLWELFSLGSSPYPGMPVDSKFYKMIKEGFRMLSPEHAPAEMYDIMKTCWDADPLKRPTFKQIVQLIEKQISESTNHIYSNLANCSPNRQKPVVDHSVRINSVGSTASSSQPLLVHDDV
Sequence of BAF3 KIT EX11 DEL/V654A (P10721 with tags, fused parts or gaps DEL557-558/V654A, form open): as the sequence (P10721 with tags, fused parts or gaps DEL557-558/T670I, form open) above, with V652A, I668T counted along it
Sequence of BAF3 KIT EX11 DEL (P10721 with tags, fused parts or gaps DEL557-558): as the sequence (P10721 with tags, fused parts or gaps DEL557-558/T670I, form open) above, with I668T counted along it
Sequence of BAF3 KIT EX11 DEL/D816H (P10721 with tags, fused parts or gaps DEL557-558/D816H, form open): as the sequence (P10721 with tags, fused parts or gaps DEL557-558/T670I, form open) above, with I668T, D814H counted along it

`Cc1ccc(NC(=O)c2cc(C(F)(F)F)ccn2)cc1C#Cc1cnc(NC(=O)N2CC[C@H](N(C)C)C2)s1` [Compound 1a, N-[3-[2-[2-[[(3S)-3-(dimethylamino)pyrrolidine-1-carbonyl]amino]thiazol-5-yl]ethynyl]-4-methyl-phenyl]-4-(trifluoromethyl)pyridine-2-carboxamide]: the GI50 was 10 to 50 nM on BAF3 KIT EX11 DEL/T670I, 10 to 50 nM on BAF3 KIT EX11 DEL/D816H, 10 to 50 nM on BAF3 KIT EX11 DEL/V654A and less than 10 nM on BAF3 KIT EX11 DEL. For the same molecule, in data set [1] (2 mg/kg and 4 mg/kg (either dose), FIG. 2A/2B), the “curve shapes and AUC, Day 1 versus Day 10” value is “similar”. Also, the “exposure after repeat dosing” value in data set [1] (2 mg/kg and 4 mg/kg, Day 10 versus Day 1) is recorded as “no significant loss of exposure”. Moreover, the “AUC (area under the curve) after repeat dosing” value in data set [2] (oral, 10 mg/kg and 30 mg/kg (either dose), repeat dosing for 10 days, FIG. 1) is on record as “increased”. Also, the “average observed plasma concentration (Cav) versus target exposure” value in data set [2] (oral, 30 mg/kg (the latter dose)) is recorded as “exceeded target exposure required for achieving desired antitumor efficacy”. Further, the “clearance (Cl)” value in data set [2] (single dose) is “high”. Moreover, the “volume of distribution (Vd)” value in data set [2] (single dose) is given as “high”.
As for `Cc1ccc(NC(=O)c2cc(C(F)(F)F)ccn2)cc1C#Cc1cnc(NC(=O)N2CC[C@@H](N(C)C)C2)s1` [Compound 1b], the GI50 was 10 to 50 nM on BAF3 KIT EX11 DEL/T670I, 10 to 50 nM on BAF3 KIT EX11 DEL/D816H, 10 to 50 nM at BAF3 KIT EX11 DEL/V654A and less than 10 nM on BAF3 KIT EX11 DEL.
For the molecule `Cc1ccc(NC(=O)c2cc(C(F)(F)F)ccn2)cc1C#Cc1cnc(NC(=O)N2CC[C@@H](O)C2)s1` [Compound 2a], the GI50 on BAF3 KIT EX11 DEL/T670I, at BAF3 KIT EX11 DEL/D816H, at BAF3 KIT EX11 DEL/V654A and at BAF3 KIT EX11 DEL was less than 10 nM in each case.
With `Cc1ccc(NC(=O)c2cc(C(F)(F)F)ccn2)cc1C#Cc1cnc(NC(=O)N2CC[C@H](O)C2)s1` [Compound 2b], the GI50 at BAF3 KIT EX11 DEL/T670I, on BAF3 KIT EX11 DEL/D816H, on BAF3 KIT EX11 DEL/V654A and on BAF3 KIT EX11 DEL was less than 10 nM in each case.
As to `Cc1ccc(NC(=O)c2cc(C(F)(F)F)ccn2)cc1C#Cc1cnc(NC(=O)N2CC(O)C2)s1` [Compound 3], the 50% growth inhibitory concentration (GI50) at BAF3 KIT EX11 DEL/T670I is 10 to 50 nM; at BAF3 KIT EX11 DEL/D816H, 10 to 50 nM; on BAF3 KIT EX11 DEL/V654A, 10 to 50 nM; on BAF3 KIT EX11 DEL, less than 10 nM.
Take `Cc1ccc(NC(=O)c2cc(C(F)(F)F)ccn2)cc1C#Cc1cnc(NC(=O)N2CC(C)(O)C2)s1` [Compound 4]: the GI50 on BAF3 KIT EX11 DEL/T670I is 10 to 50 nM; on BAF3 KIT EX11 DEL/D816H, 10 to 50 nM; at BAF3 KIT EX11 DEL/V654A, 10 to 50 nM; on BAF3 KIT EX11 DEL it was less than 10 nM.
As for `CN[C@H]1CCN(C(=O)Nc2ncc(C#Cc3cc(NC(=O)c4cc(C(F)(F)F)ccn4)ccc3C)s2)C1` [Compound 5a], the GI50 is 50 to 100 nM at BAF3 KIT EX11 DEL/T670I, 10 to 50 nM on BAF3 KIT EX11 DEL/D816H, 10 to 50 nM on BAF3 KIT EX11 DEL/V654A and less than 10 nM on BAF3 KIT EX11 DEL.
